Assays:
[1] = tested on: HBV genotype C; experiment: Primary efficacy study in HBV genotype C-infected huFRG KO mice; type: in vivo, hepatitis B virus
[2] = tested on: HBV genotype A; experiment: Pilot/preliminary efficacy study in HBV genotype A-infected huFRG KO mice; type: in vivo, hepatitis B virus
[3] = Single and repeat dose maximum tolerated dose studies; type: in vivo, C57Bl/6 mice or huFRG KO mice
[4] = Tolerability; type: in vivo, huFRG KO mice; details: for weight recovery after the treatment phase: primary study, post-treatment
[5] = tested on: HBV; experiment: HBV transgenic mouse model; type: in vivo, hepatitis B virus; details: HBV transgenic mice, 100 mg/kg daily IP; data not shown
[6] = entecavir 1 mg/kg/day PO, Days 59-72, genotype C

| SMILES | decrease in HBV titers after one week compared to control mice ([1]; 100 mg/kg/day IP, genotype C) [log] | decrease in HBV titers after two weeks of dosing compared to control mice ([1]; 100 mg/kg/day IP, genotype C) [log] | suppression of HBV viremia (average) after one week ([2]; 50 and 100 mg/kg/day IP, Days 160-173, vs pretreatment Day 159, genotype A) [log] | suppression of HBV viremia at week two ([2]; 50 and 100 mg/kg/day IP, surviving mice, genotype A) | decrease in HBV titers (trend) in pilot experiment ([2]; genotype A, #208 treated animals) [log] | Dose-limiting toxicity ([3]; non-infected mice, IP) | maximum tolerated dose (MTD) ([3]; single and repeat IP injections up to seven days, male C57Bl/6 or huFRG KO mice) [mg/kg] | deaths / moribundity in post-dosing phase of primary study ([4]; Day 87-88, one animal per group, not with certainty test article-related) | weight recovery after the treatment phase [4] | reduction of intrahepatic DNA accumulation [5] | reduction of serum viremia [5] | decrease in HBV titers after one week of treatment [1, 6] [log] | decrease in HBV titers after two weeks [1, 6] [log] | Viral titers rebounded to pretreatment levels by Day ([2]; after entecavir withdrawal (treatment days 71-84), genotype A) [days] | drop in HBV titers more than the control animals ([2]; entecavir 1.0 mg/kg PO two weeks, Days 70 to 85, genotype A, plasma) [log] |
| --- | --- | --- | --- | --- | --- | --- | --- | --- | --- | --- | --- | --- | --- | --- | --- |
| CC(=Nc1ccccc1N)c1c(C)cc(=O)n(O)c1O [#208] | 1.6 | 1.4 | 1.1 | sustained | ~1 | >10% weight loss, hypoactivity, unkempt appearance, feeling cool-to-touch, and distended abdomen | 100 | found dead | some weight gain occurred | failed to reduce | failed to reduce | – | – | – | – |
| C=C1[C@H](CO)[C@@H](O)C[C@@H]1n1cnc2c(=O)[nH]c(N)nc21 [entecavir, Entecavir, reference compound] | – | – | – | – | – | – | – | – | some weight gain occurred | – | – | 2.6 | 3.2 | ≤ 159 | 2.8 |

— PMC5743599 (Antiviral research, 2017)
